Each compound was assayed against T1, Receptor-interacting serine/threonine-protein kinase 1 (Homo sapiens, UniProt Q13546) (assay: Inhibitory Activity Assay).
T1 sequence (Q13546 whole entry): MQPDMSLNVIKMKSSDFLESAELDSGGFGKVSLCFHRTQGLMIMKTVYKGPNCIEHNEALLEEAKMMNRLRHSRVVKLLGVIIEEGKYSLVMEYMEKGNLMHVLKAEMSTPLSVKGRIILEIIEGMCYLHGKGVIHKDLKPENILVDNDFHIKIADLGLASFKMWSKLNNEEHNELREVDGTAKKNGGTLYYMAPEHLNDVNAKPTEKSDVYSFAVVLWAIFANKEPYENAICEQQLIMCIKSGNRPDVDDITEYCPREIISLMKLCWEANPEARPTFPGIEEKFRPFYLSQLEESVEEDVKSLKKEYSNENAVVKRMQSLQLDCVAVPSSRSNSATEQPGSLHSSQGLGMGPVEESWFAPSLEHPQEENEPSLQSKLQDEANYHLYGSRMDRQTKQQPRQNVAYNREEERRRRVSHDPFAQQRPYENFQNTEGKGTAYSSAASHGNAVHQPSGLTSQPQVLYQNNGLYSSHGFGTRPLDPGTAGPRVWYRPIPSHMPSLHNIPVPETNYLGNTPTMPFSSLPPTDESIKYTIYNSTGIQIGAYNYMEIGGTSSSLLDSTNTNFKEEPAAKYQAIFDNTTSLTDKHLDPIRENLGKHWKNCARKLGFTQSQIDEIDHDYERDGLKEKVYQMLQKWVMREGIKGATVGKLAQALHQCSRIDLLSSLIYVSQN
Description: The compound of the present invention and the control compound were dissolved in the assay buffer (50 mM Hepes pH 7.5, 50 mM NaCl, 30 mM MgCl2, 1 mM DTT, 0.02% CHAPS, 0.5 mg/mL BSA), and diluted in a ratio of 1:1.5 using a 22-point titration (high concentration 2 μM), and then added to a 384-well plate. […] After completion of the reaction, 5 μL of ADP-Glo reagent containing 0.02% CHAPS was added to each well and incubated at room temperature for 1 h to terminate the kinase reaction and use up all remaining ATP. Then, 5 μL of ADP-Glo detection solution containing 0.02% CHAPS was added to each well and incubated at room temperature for 30 min to measure the emittance intensity.

| Compound | IC50 [nM] |
| --- | --- |
| C#CCN1CCN(CC#Cc2ccc3c(c2)N(C)C(=O)[C@@H](NC(=O)c2nnc(Cc4ccccc4)o2)[C@@H](C)O3)CC1 [US20240270732, Compound I-49] | 16.2 |
| C#CCN1CCN(CC#Cc2ccc3c(c2)N(C)C(=O)[C@@H](NC(=O)c2noc(Cc4ccccc4)n2)[C@@H](C)O3)CC1 [US20240270732, Compound I-51] | 15.9 |
| C#CCN1CCN(CC#Cc2ccc3c(c2)N(C)C(=O)[C@@H](NC(=O)c2cn(Cc4ccccc4)nn2)[C@@H](C)O3)CC1 [US20240270732, Compound I-53] | 15.1 |
| C#CCN1CCN(CC#Cc2ccc3c(c2)N(C)C(=O)[C@@H](NC(=O)c2nnn(Cc4ccccc4)n2)[C@@H](C)O3)CC1 [US20240270732, Compound I-55] | 8.91 |
| C#CCN1CCN(CC#Cc2ccc3c(c2)N(C)C(=O)[C@@H](NC(=O)c2nnn(Cc4ccccc4)n2)CO3)CC1 [US20240270732, Compound I-57] | 8.09 |
| CN1C(=O)[C@@H](NC(=O)c2nnn(Cc3ccccc3)n2)COc2ccc(C#CCN3CCN(CC#Cc4ccc5c(c4)N(C)C(=O)[C@@H](NC(=O)c4nnn(Cc6ccccc6)n4)CO5)CC3)cc21 [US20240270732, Compound I-58] | 6.16 |
| C#CCN1CCN(CC#Cc2ccc3c(c2)N(C)C(=O)[C@@H](NC(=O)c2cn(Cc4ccccc4)cn2)[C@@H](C)O3)CC1 [US20240270732, Compound I-59] | 10.2 |
| C#CCN1CCN(CC#Cc2ccc3c(c2)N(C)C(=O)[C@@H](NC(=O)c2cn(Cc4ccccc4)cn2)CO3)CC1 [US20240270732, Compound I-61] | 8.43 |
| C#CCN1CCN(CC#Cc2ccc3c(c2)N(C)C(=O)[C@@H](NC(=O)c2cn(Cc4ccccc4)cn2)[C@H](C)O3)CC1 [US20240270732, Compound I-63] | 59.2 |
| C#CCN1CCN(CC#Cc2ccc3c(c2)N(C)C(=O)[C@@H](NC(=O)c2n[nH]c(Cc4ccncc4)n2)[C@@H](C)O3)CC1 [US20240270732, Compound I-65] | 20.7 |
| C[C@H]1Oc2ccc(C#CCN3CCN(CC#Cc4ccc5c(c4)N(C)C(=O)[C@@H](NC(=O)c4n[nH]c(Cc6ccncc6)n4)[C@@H](C)O5)CC3)cc2N(C)C(=O)[C@H]1NC(=O)c1n[nH]c(Cc2ccncc2)n1 [US20240270732, Compound I-66] | 18.8 |
| C#CCN1CCN(CC#Cc2ccc3c(c2)N(C)C(=O)[C@@H](NC(=O)c2n[nH]c(Cc4cccnc4)n2)[C@@H](C)O3)CC1 [US20240270732, Compound I-67] | 14.6 |
| C[C@H]1Oc2ccc(C#CCN3CCN(CC#Cc4ccc5c(c4)N(C)C(=O)[C@@H](NC(=O)c4n[nH]c(Cc6cccnc6)n4)[C@@H](C)O5)CC3)cc2N(C)C(=O)[C@H]1NC(=O)c1n[nH]c(Cc2cccnc2)n1 [US20240270732, Compound I-68] | 16 |
| C#CCN1CCN(CC#Cc2ccc3c(c2)N(C)C(=O)[C@@H](NC(=O)c2n[nH]c(Cc4cccc(O)c4)n2)[C@@H](C)O3)CC1 [US20240270732, Compound I-69] | 19.4 |
| C[C@H]1Oc2ccc(C#CCN3CCN(CC#Cc4ccc5c(c4)N(C)C(=O)[C@@H](NC(=O)c4n[nH]c(Cc6cccc(O)c6)n4)[C@@H](C)O5)CC3)cc2N(C)C(=O)[C@H]1NC(=O)c1n[nH]c(Cc2cccc(O)c2)n1 [US20240270732, Compound I-70] | 18.2 |
| C#CCN1CCN(CC#Cc2ccc3c(c2)N(C)C(=O)[C@@H](NC(=O)c2n[nH]c(Cc4cccc(N)c4)n2)[C@@H](C)O3)CC1 [US20240270732, Compound I-71] | 23.9 |
| C[C@H]1Oc2ccc(C#CCN3CCN(CC#Cc4ccc5c(c4)N(C)C(=O)[C@@H](NC(=O)c4n[nH]c(Cc6cccc(N)c6)n4)[C@@H](C)O5)CC3)cc2N(C)C(=O)[C@H]1NC(=O)c1n[nH]c(Cc2cccc(N)c2)n1 [US20240270732, Compound I-72] | 22.1 |
| C#CCN1CCN(CC#Cc2ccc3c(c2)N(C)C(=O)[C@@H](NC(=O)c2ncn(Cc4cccnc4)n2)[C@@H](C)O3)CC1 [US20240270732, Compound I-73] | 19.1 |
| C#CCN1CCN(CC#Cc2ccc3c(c2)N(C)C(=O)[C@@H](NC(=O)c2ncn(Cc4cccc(O)c4)n2)[C@@H](C)O3)CC1 [US20240270732, Compound I-75] | 21 |
| C#CCN1CCN(CC#Cc2ccc3c(c2)N(C)C(=O)[C@@H](NC(=O)c2ncn(Cc4cccc(N)c4)n2)[C@@H](C)O3)CC1 [US20240270732, Compound I-77] | 29 |

Next, values leading:

| IC50 [nM] | Compound |
| --- | --- |
| 13.3 | C[C@H]1Oc2ccc(C#CCN3CCN(CC#Cc4ccc5c(c4)N(C)C(=O)[C@@H](NC(=O)c4cnn(Cc6ccccc6)c4)[C@@H](C)O5)CC3)cc2N(C)C(=O)[C@H]1NC(=O)c1cnn(Cc2ccccc2)c1 [US20240270732, Compound I-48] |
| 14.3 | C[C@H]1Oc2ccc(C#CCN3CCN(CC#Cc4ccc5c(c4)N(C)C(=O)[C@@H](NC(=O)c4nnc(Cc6ccccc6)o4)[C@@H](C)O5)CC3)cc2N(C)C(=O)[C@H]1NC(=O)c1nnc(Cc2ccccc2)o1 [US20240270732, Compound I-50] |
| 13.3 | C[C@H]1Oc2ccc(C#CCN3CCN(CC#Cc4ccc5c(c4)N(C)C(=O)[C@@H](NC(=O)c4noc(Cc6ccccc6)n4)[C@@H](C)O5)CC3)cc2N(C)C(=O)[C@H]1NC(=O)c1noc(Cc2ccccc2)n1 [US20240270732, Compound I-52] |
| 14.7 | C[C@H]1Oc2ccc(C#CCN3CCN(CC#Cc4ccc5c(c4)N(C)C(=O)[C@@H](NC(=O)c4cn(Cc6ccccc6)nn4)[C@@H](C)O5)CC3)cc2N(C)C(=O)[C@H]1NC(=O)c1cn(Cc2ccccc2)nn1 [US20240270732, Compound I-54] |
| 7.44 | C[C@H]1Oc2ccc(C#CCN3CCN(CC#Cc4ccc5c(c4)N(C)C(=O)[C@@H](NC(=O)c4nnn(Cc6ccccc6)n4)[C@@H](C)O5)CC3)cc2N(C)C(=O)[C@H]1NC(=O)c1nnn(Cc2ccccc2)n1 [US20240270732, Compound I-56] |
| 9.91 | C[C@H]1Oc2ccc(C#CCN3CCN(CC#Cc4ccc5c(c4)N(C)C(=O)[C@@H](NC(=O)c4cn(Cc6ccccc6)cn4)[C@@H](C)O5)CC3)cc2N(C)C(=O)[C@H]1NC(=O)c1cn(Cc2ccccc2)cn1 [US20240270732, Compound I-60] |
| 8.07 | CN1C(=O)[C@@H](NC(=O)c2cn(Cc3ccccc3)cn2)COc2ccc(C#CCN3CCN(CC#Cc4ccc5c(c4)N(C)C(=O)[C@@H](NC(=O)c4cn(Cc6ccccc6)cn4)CO5)CC3)cc21 [US20240270732, Compound I-62] |
| 62.2 | C[C@@H]1Oc2ccc(C#CCN3CCN(CC#Cc4ccc5c(c4)N(C)C(=O)[C@@H](NC(=O)c4cn(Cc6ccccc6)cn4)[C@H](C)O5)CC3)cc2N(C)C(=O)[C@H]1NC(=O)c1cn(Cc2ccccc2)cn1 [US20240270732, Compound I-64] |
| 17.5 | C[C@H]1Oc2ccc(C#CCN3CCN(CC#Cc4ccc5c(c4)N(C)C(=O)[C@@H](NC(=O)c4ncn(Cc6cccnc6)n4)[C@@H](C)O5)CC3)cc2N(C)C(=O)[C@H]1NC(=O)c1ncn(Cc2cccnc2)n1 [US20240270732, Compound I-74] |
| 22.4 | C[C@H]1Oc2ccc(C#CCN3CCN(CC#Cc4ccc5c(c4)N(C)C(=O)[C@@H](NC(=O)c4ncn(Cc6cccc(O)c6)n4)[C@@H](C)O5)CC3)cc2N(C)C(=O)[C@H]1NC(=O)c1ncn(Cc2cccc(O)c2)n1 [US20240270732, Compound I-76] |
| 23.1 | C[C@H]1Oc2ccc(C#CCN3CCN(CC#Cc4ccc5c(c4)N(C)C(=O)[C@@H](NC(=O)c4ncn(Cc6cccc(N)c6)n4)[C@@H](C)O5)CC3)cc2N(C)C(=O)[C@H]1NC(=O)c1ncn(Cc2cccc(N)c2)n1 [US20240270732, Compound I-78] |
